# Patent publication US8501977B2, “Platinum complex and pharmaceutical composition containing the same” (Unitech Co., Ltd., priority 2008, dated 2013)
# How the values were obtained:
# [1] = tested on: U937 (human lymphoma cell); assay: MTS cell proliferation test, U937 (Embodiment 8); type: cell-based
# Experimental: (§1) Respectively, the S medicine test solution was prepared by dissolving the ((S,S,S) cis,cis-spiro[4,4]nonane-1,6-diamine)oxalatoplatinum(II) complex (compound 2; hereinafter, it is described as S medicine) into the dimethylsulfoxide (DMSO) with the concentration of 10 mg/ml and the R medicine test solution was prepared by dissolving the ((R,R,R)cis,cis-spiro[4,4]nonane-1,6-diamine) oxalatoplatinum(II) complex (compound 3; hereinafter, it is described as R medicine) into the dimethylsulfoxide (DMSO) with the concentration of 10 mg/ml.
# (§2) The test was performed by using A549 (human lung cancer cell), LU65A (human lung cancer cell), RERF-LC-MA (human lung cancer cell), LU99 (human lung cancer cell), H460 (human lung cancer cell), HCT116 (human colon cancer cell), HT-29 (human colon cancer cell), MKN-45 (human gastric cancer cell), MKN-1 (human gastric cancer cell), U937 (human lymphoma cell), KP-1N (human pancreas cancer cell) and B2452 (human mesotheliama cell) as the cancer cell.
# (§3) These cells were suspended in the each culture medium that the serum of 10% was added, and were dispensed in 96-well plate. And then, these were cultured in 5% CO2 at 37 degrees centigrade during a night. Next day, the S medicine test solution and the R medicine test solution were prepared in the culture medium to the various concentrations (5, 10, 20 μg/ml), and were dispensed into the plates that the cells were set preliminarily. And further, these were cultured in 5% CO2 at 37 degrees centigrade for three days.
# (§4) The cell proliferation after the medicine addition was measured on the 3rd day from the 1st day after the medicine addition by the MTS method (kit for cell proliferation test manufactured by Promega Company).
# (§5) The inhibition rate (%) of the cell proliferation was obtained from the measured MTS value by the following formula. Inhibition rate(%)=(1-MTS value of medicine addition group/MTS value of medicine non-addition group)×100
# (§6) Because the value which was obtained by the above-mentioned formula represents the inhibition rate of the cell proliferation, the higher the numerical value is, the higher the medicine effect is. It is desired that the one whose value is 50% or more has the medicine effect.
# [2] = tested on: KP-1N (human pancreas cancer cell); assay: MTS cell proliferation test, KP-1N (Embodiment 8); type: cell-based
# Experimental: as §1, §2, §3, §4, §5, §6
# [3] = tested on: H2452 cell (human mesothelicana cell); assay: MTS cell proliferation test, H2452 (Embodiment 8); type: cell-based
# Experimental: as §1, §2, §3, §4, §5, §6
# [4] = tested on: LU99 (human lung cancer cell); assay: MTS cell proliferation test, LU99 (Embodiment 8); type: cell-based
# Experimental: as §1, §2, §3, §4, §5, §6
# [5] = tested on: A549 (human lung cancer cell); assay: MTS cell proliferation test, A549 (Embodiment 8); type: cell-based
# Experimental: as §1, §2, §3, §4, §5, §6
# [6] = tested on: LU65A (human lung cancer cell); assay: MTS cell proliferation test, LU65A (Embodiment 8); type: cell-based
# Experimental: as §1, §2, §3, §4, §5, §6
# [7] = tested on: H460 (human lung cancer cell); assay: MTS cell proliferation test, H460 (Embodiment 8); type: cell-based
# Experimental: as §1, §2, §3, §4, §5, §6
# tumor cells = assay: MTS cell proliferation test, all cancer cells of Embodiment 8; type: cell-based, human; conditions: summary of Table 2 in words
# Experimental: as §1
# The test was performed by using A549 (human lung cancer cell), LU65A (human lung cancer cell), RERF-LC-MA (human lung cancer cell), LU99 (human lung cancer cell), H460 (human lung cancer cell), HCT116 (human colon cancer cell), HT-29 (human colon cancer cell), MKN-45 (human gastric cancer cell), MKN-1 (human gastric cancer cell), U937 (human lymphoma cell), KP-1N (human pancreas cancer cell) and B2452 (human mesotheliama cell) as the cancer cell. […]
# as §4
# The inhibition rate (%) of the cell proliferation was obtained from the measured MTS value by the following formula. […]
# [8] = tested on: HT-29 (human colon cancer cell); assay: MTS cell proliferation test, HT-29 (Embodiment 8); type: cell-based
# Experimental: as §1, §2, §3, §4, §5, §6
# [9] = tested on: RERF-LC-MA (human lung cancer cell); assay: MTS cell proliferation test, RERF-LC-MA (Embodiment 8); type: cell-based
# Experimental: as §1, §2, §3, §4, §5, §6
# [10] = tested on: MKN-1 (human gastric cancer cell); assay: MTS cell proliferation test, MKN-1 (Embodiment 8); type: cell-based
# Experimental: as §1, §2, §3, §4, §5, §6
# [11] = tested on: MKN-45 (human gastric cancer cell); assay: MTS cell proliferation test, MKN-45 (Embodiment 8); type: cell-based
# Experimental: as §1, §2, §3, §4, §5, §6
# [12] = tested on: HCT116 (human colon cancer cell); assay: MTS cell proliferation test, HCT116 (Embodiment 8); type: cell-based
# Experimental: as §1, §2, §3, §4, §5, §6
compound,measurement,setting,value
"NC1CCCC12CCCC2N.O=C1[O][Pt][O]C1=O [S medicine, ((S,S,S) cis,cis-spiro[4,4]nonane-1,6-diamine)oxalatoplatinum(II) complex]",Inhibition rate of cell proliferation after 3 days from medicine addition (%),"[1]; U937, 5 μg/ml",⊚ (⊚: 76~100%)
same,Inhibition rate of cell proliferation after 3 days from medicine addition (%),"[1]; U937, 10 μg/ml",⊚ (⊚: 76~100%)
same,Inhibition rate of cell proliferation after 3 days from medicine addition (%),"[1]; U937, 20 μg/ml",⊚ (⊚: 76~100%)
same,Inhibition rate of cell proliferation after 3 days from medicine addition (%),[2]; 5 μg/ml,Δ (Δ: 26~50%)
same,Inhibition rate of cell proliferation after 3 days from medicine addition (%),[2]; 10 μg/ml,◯ (◯: 51~75%)
same,Inhibition rate of cell proliferation after 3 days from medicine addition (%),[2]; 20 μg/ml,⊚ (⊚: 76~100%)
same,Inhibition rate of cell proliferation after 3 days from medicine addition (%),"[3]; H2452, 5 μg/ml",X (X: 0~25%)
same,Inhibition rate of cell proliferation after 3 days from medicine addition (%),"[3]; H2452, 10 μg/ml",Δ (Δ: 26~50%)
same,Inhibition rate of cell proliferation after 3 days from medicine addition (%),"[3]; H2452, 20 μg/ml",Δ (Δ: 26~50%)
same,Inhibition rate of cell proliferation after 3 days from medicine addition (%),"[4]; LU99, 5 μg/ml",◯ (◯: 51~75%)
same,Inhibition rate of cell proliferation after 3 days from medicine addition (%),"[4]; LU99, 10 μg/ml",⊚ (⊚: 76~100%)
same,Inhibition rate of cell proliferation after 3 days from medicine addition (%),"[4]; LU99, 20 μg/ml",⊚ (⊚: 76~100%)
same,Inhibition rate of cell proliferation after 3 days from medicine addition (%),"[5]; A549, 5 μg/ml",X (X: 0~25%)
same,Inhibition rate of cell proliferation after 3 days from medicine addition (%),"[5]; A549, 10 μg/ml",◯ (◯: 51~75%)
same,Inhibition rate of cell proliferation after 3 days from medicine addition (%),"[5]; A549, 20 μg/ml",⊚ (⊚: 76~100%)
same,Inhibition rate of cell proliferation after 3 days from medicine addition (%),[6]; 5 μg/ml,◯ (◯: 51~75%)
same,Inhibition rate of cell proliferation after 3 days from medicine addition (%),[6]; 10 μg/ml,⊚ (⊚: 76~100%)
same,Inhibition rate of cell proliferation after 3 days from medicine addition (%),[6]; 20 μg/ml,⊚ (⊚: 76~100%)
same,Inhibition rate of cell proliferation after 3 days from medicine addition (%),"[7]; H460, 5 μg/ml",Δ (Δ: 26~50%)
same,Inhibition rate of cell proliferation after 3 days from medicine addition (%),"[7]; H460, 10 μg/ml",◯ (◯: 51~75%)
same,Inhibition rate of cell proliferation after 3 days from medicine addition (%),"[7]; H460, 20 μg/ml",⊚ (⊚: 76~100%)
same,medicine effect for the many tumor cells,tumor cells,high medicine effect compared with the oxaliplatin
same,Inhibition rate of cell proliferation after 3 days from medicine addition (%),"[8]; HT-29, 5 μg/ml",Δ (Δ: 26~50%)
same,Inhibition rate of cell proliferation after 3 days from medicine addition (%),"[8]; HT-29, 10 μg/ml",Δ (Δ: 26~50%)
same,Inhibition rate of cell proliferation after 3 days from medicine addition (%),"[8]; HT-29, 20 μg/ml",◯ (◯: 51~75%)
same,Inhibition rate of cell proliferation after 3 days from medicine addition (%),[9]; 5 μg/ml,X (X: 0~25%)
same,Inhibition rate of cell proliferation after 3 days from medicine addition (%),[9]; 10 μg/ml,Δ (Δ: 26~50%)
same,Inhibition rate of cell proliferation after 3 days from medicine addition (%),[9]; 20 μg/ml,◯ (◯: 51~75%)
same,Inhibition rate of cell proliferation after 3 days from medicine addition (%),"[10]; MKN-1, 5 μg/ml",◯ (◯: 51~75%)
same,Inhibition rate of cell proliferation after 3 days from medicine addition (%),"[10]; MKN-1, 10 μg/ml",⊚ (⊚: 76~100%)
same,Inhibition rate of cell proliferation after 3 days from medicine addition (%),"[10]; MKN-1, 20 μg/ml",⊚ (⊚: 76~100%)
same,Inhibition rate of cell proliferation after 3 days from medicine addition (%),"[11]; MKN-45, 5 μg/ml",⊚ (⊚: 76~100%)
same,Inhibition rate of cell proliferation after 3 days from medicine addition (%),"[11]; MKN-45, 10 μg/ml",⊚ (⊚: 76~100%)
same,Inhibition rate of cell proliferation after 3 days from medicine addition (%),"[11]; MKN-45, 20 μg/ml",⊚ (⊚: 76~100%)
same,Inhibition rate of cell proliferation after 3 days from medicine addition (%),"[12]; HCT116, 5 μg/ml",◯ (◯: 51~75%)
same,Inhibition rate of cell proliferation after 3 days from medicine addition (%),"[12]; HCT116, 10 μg/ml",◯ (◯: 51~75%)
same,Inhibition rate of cell proliferation after 3 days from medicine addition (%),"[12]; HCT116, 20 μg/ml",◯ (◯: 51~75%)
